Assay results from patent US20210354135A1, “SYSTEMS AND METHODS FOR EVALUATING AN ABILITY OF A BLOOD SAMPLE TO COAGULATE, CLOT, AND/OR OCCLUDE” (The Texas A&M University System, priority 2020, published 2021).

Columns and labels:
[1] = system: recalcified citrated whole blood; assay: Pressure-sensor readout of clot formation and clotting time in tortuous microfluidic device perfused with recalcified citrated whole blood; format: cell-based, human; conditions: for clotting time (2.5× pressure increase from baseline): increasing concentration of heparin (0-1 IU/ml) or bivalirudin (0-75 ng/mL), FIGS. 20, 22
Description: Even though microscopic analysis of real-time thrombus formation in the microfluidic device may be useful in labs, the microfluidic device may also be deployed and utilized at the point-of-care. In the interest of utilizing the microfluidic device at the point-of-care, the microfluidic device was connected to a syringe pump, a disposable pressure sensor, and a display monitor. Given that each of these components are already a part of most extracorporeal circuits, these components may be conveniently integrated in broad critical care settings. Additionally, using these components, clot formation may be automatically tracked in real-time by measuring changes in fluid pressure caused by increasing channel occlusion inside the device, as described above with respect to system 10.
It was found during testing of the microfluidic device that as recalcified citrated whole blood was perfused and formed clots inside the microfluidic device, pressure increases typical of the dynamics of clotting in blood vessel in vivo, or in an in vitro hollow channel, was seen, the pressure increases comprising three stages—a steady reaction time, a growth phase, and saturation. […] Next, a clotting time measurement was developed for these pressure readouts to serve as a quantitative end point in lab and clinical settings.
The experimental microfluidic described above was fabricated from PDMS soft lithography to a size that would fit on a standard (e.g., 75 mm×50 mm) microscope slide. The cured PDMS from the master mold was bonded to a […] PDMS-coated glass slide and punched with inlet and outlet 1.5 mm holes. Next, the device was coated with rat tail type I collagen at 100 μg/ml infused into the microfluidic device which was pre-treated with silane. The microfluidic device was incubated at 37° C. for three to four hours and washed with saline solution prior to blood perfusion. At the inlet side of the microfluidic device, a reservoir was created by force-fitting an open slip-tip syringe and fresh blood was stored therein. At the outlet, tubing was connected to an inline, disposable pressure sensor configured to determine pressure change across the microfluidic device. The other end of the pressure sensor was connected to a syringe pump which pulled the stored blood at a mean arteriole wall shear rate of 1200 1/s. Thrombus formation was observed using time-lapse imaging (10×, NA 0.35) of fluorescently labelled fibrinogen (15 μg/ml, Alexa Fluor 647, Invitrogen) and platelets (10 μl/ml Human CD41-PE (clone: VIPL3), Invitrogen) added directly to the blood and incubated at room temperature for approximately eight minutes for whole blood imaging. Fluorescence microscopy of fibrin and platelets was then performed at an interval of approximately 30 seconds.

[2] = system: whole blood; assay: Fibrin area coverage by fluorescence microscopy in collagen-coated tortuous microfluidic device perfused with whole blood; format: cell-based, human
Description: A microfluidic device was then fabricated and mounted onto a microscope for visualization. The microfluidic device was also connected the to a syringe pump to introduce flow therethrough in a configuration similar, in at least some respects, to that of system 10 shown in FIG. 1. Blood first entered into a large reservoir (4.7 mm wide) and then flow split into four smaller parallel stenosed tortuous channels (200 μm wide); followed by convergence of the flow into an outlet similar to the inlet. The 4-channel design is partially analogous to a vessel network in vivo in which clots may form or detach locally, but the pressure still increases due to the systemic thrombosis. In addition, the total width and length of the device were designed to fit on a standard glass microscope slide for practical ease. Each device contains multiple single microchannel sections that were optimized to create maximum tortuosity (alternating 30° bends, corresponding to TI=3.4), to expose flowing whole blood to varying shear rates due to both stenosis and tortuosity, thus promoting rapid clot formation and occlusion. To enable more rapid cell activation and adhesion, the surface of the microchannels were further functionalized within the device with collagen type I, which is a commonly applied platelet agonist. The microfluidic device was operated at a flowrate of 70 μl/min, leading to a pre-stenosed mean wall shear rate of 1,200 reciprocal seconds (1/s) corresponding to typical arteriolar flow, and a wall shear gradient of 935 reciprocal second-millimeters (1/(s-m)) in the straight region following the pre-stenosed reservoir.
Referring to FIGS. 13, 14, re-calcified citrated whole blood was perfused through the microfluidic device for a maximum of 10 minutes at the 70 μl/min, less than 1 mL of blood was consumed, and the formation of various sized thrombi was detected throughout its entire length using fluorescence imaging 205, 207 shown in FIGS. 13, 14, respectively. […]

Row | Compound | blood flow pressure curve over time ([1]; increasing doses of tranexamic acid 0-4 mg/mi in whole blood, FIG. 25) | clotting time ([1]; increasing doses of tranexamic acid 0-4 mg/mi in whole blood, FIG. 26) | fibrin area coverage ([2]; bivalirudin 0-100 ng mL−1 added to whole blood, FIGS. 17, 18) | fibrin area coverage ([2]; bivalirudin at 75 ng/ml in whole blood, FIGS. 17, 18) | blood flow pressure increase over time ([1]; bivalirudin 0-75 ng/mL added into blood, FIG. 21) | clotting time (2.5× pressure increase from baseline) [1] | fibrin area coverage ([2]; UFH 0-1 IU/mL added to whole blood, fluorescently labelled fibrin, FIGS. 15, 16) | blood flow pressure increase over time ([1]; heparin 0-1 IU/ml added into blood, relative to normal controls, FIG. 19)
1 | NC[C@H]1CC[C@H](C(=O)O)CC1 [tranexamic acid] | relative shift in pressure curve to the left | decrease in clotting time |  |  |  |  |  | 
2 | bivalirudin |  |  | reduced fibrin | nearly complete clearance | a similar trend | clotting time decreased as concentration increased |  | 
3 | unfractionated heparin |  |  |  |  |  | clotting time decreased as concentration increased | decrease in fibrin area coverage | the pressure increase shifted relative to normal controls
